Reference: the NIST ThermoML archive (doi:10.1021/je050200w)

Legend:
[1] = 101 kPa, Liquid
[2] = xn = mol fraction of the nth substance listed; settings: 101 kPa, Liquid, x1 = 1

CCCCCCCCCCCO [1-undecanol]
[1]
Settings | mass density [kg/m3] | viscosity [mPa·s]
293.15 K | 832.2 | 17.28
298.15 K | 828.8 | 13.72
303.15 K | 825.4 | 11.52
308.15 K | 821.7 | 9.35
313.15 K | 818.6 | 7.841

CCCCCCCCCCO [decan-1-ol]
[1]
Settings | mass density [kg/m3] | viscosity [mPa·s]
283.15 K | 836.6 | 22.06
288.15 K | 833.3 | 17.99
293.15 K | 829.9 | 14.39
298.15 K | 826.5 | 11.74
303.15 K | 823 | 9.561
308.15 K | 819.6 | 8
313.15 K | 816.3 | 6.831

CCCCCCCCCO [nonan-1-ol]
[1]
Settings | mass density [kg/m3] | viscosity [mPa·s]
283.15 K | 835 | 17.44
288.15 K | 831.5 | 14.27
293.15 K | 828.1 | 11.63
298.15 K | 824.7 | 9.519
303.15 K | 821.3 | 7.806
308.15 K | 817.8 | 6.604
313.15 K | 814.3 | 5.668

CCCCCCCCO [octan-1-ol]
[1]
Settings | mass density [kg/m3] | viscosity [mPa·s]
283.15 K | 832.1 | 13.49
288.15 K | 828.6 | 10.87
293.15 K | 825.2 | 8.944
298.15 K | 821.9 | 7.498
303.15 K | 818.4 | 6.273
308.15 K | 815 | 5.342
313.15 K | 811.4 | 4.54

CCCCCCCCO [octan-1-ol] + CCCCCCCCCO
[2]
Settings | mass density [kg/m3] | viscosity [mPa·s]
283.15 K | 832.1 | 13.49
288.15 K | 828.6 | 10.87
293.15 K | 825.2 | 8.944
298.15 K | 821.9 | 7.498
303.15 K | 818.4 | 6.273
308.15 K | 815 | 5.342
313.15 K | 811.4 | 4.54
